Tests used:
[1] = test system: SARS-CoV-1, MERS-CoV and SARS-CoV-2 proteins in HEK293T cells; parameters: species or system human
[2] = test system: SARS-CoV-2; format: cell-based
[3] = test system: SARS-CoV-1; conditions: cited from earlier work
[4] = test system: canine coronavirus; conditions: previous study (Amici et al. 2006); cited from earlier work
[5] = test system: SARS-CoV-2; format: cell-based; remark: listed apart in the source
[6] = test system: SARS-CoV-1 (Urbani); format: cell-based

Row | Molecule | MIST_MERS [1] | MIST_SARS1 [1] | MIST_SARS2 [1] | Saint_MERS [1] | Saint_SARS1 [1] | Saint_SARS2 [1] | Inhibition of SARS-CoV-2 in vitro (in words) [2] | Inhibition of SARS-CoV-1 in vitro (in words) [3] | Efficacy against canine coronavirus in vivo (in words) [4] | Antiviral activity against SARS-CoV-2 (in words) [5] | Antiviral activity against SARS-CoV-1 (in words) [6]
1 | M-Q96HW7 | 0 | 0.8124 | 0.9433 | 0 | 0.33 | 0.65 | – | – | – | – | –
2 | E-Q9UBS3 | 0.9729 | 0 | 0 | 0.98 | 0 | 0 | – | – | – | – | –
3 | E-Q8WVM8 | 0.7214 | 0.3063 | 0 | 0.95 | 0 | 0 | – | – | – | – | –
4 | E-Q9ULP9 | 0 | 0.9165 | 0 | 0 | 0.97 | 0 | – | – | – | – | –
5 | M-Q8TEM1 | 0.7258 | 0.02986 | 0 | 1 | 0 | 0 | – | – | – | – | –
6 | COc1ccc2c(c1)c(CC(=O)O)c(C)n2C(=O)c1ccc(Cl)cc1 [indomethacin] | – | – | – | – | – | – | did not inhibit SARS-CoV-2 in vitro at reasonable antiviral concentrations | similarly high levels of the drug were needed for inhibition | showed efficacy | – | –
7 | M-Q9NVH2 | 0 | 0.8943 | 0.8082 | 0 | 0.97 | 0.64 | – | – | – | – | –
8 | CCCCc1oc2ccccc2c1C(=O)c1cc(I)c(OCCN(CC)CC)c(I)c1 [amiodarone] | – | – | – | – | – | – | – | – | – | inhibited | inhibited

From patent publication US20230395193A1 (priority 2020, published 2023)
